{"source": "patent US20110077278A1", "about": "“Antifungal compositions and methods” (Troy Corporation, priority 2009, published 2011)", "origin": "cited, not measured here", "key": {"[1]": {"conditions": "in metal working fluids; BBIT compared with IPBC; reported by US 6,861,395"}, "certain fungi": {"test_system": "certain fungi", "conditions": "BBIT in the presence of sodium omadine and certain fungi; US 6,861,395"}}}
{"smiles": "CCCCn1sc2ccccc2c1=O", "note": "[BBIT, 2-n-butyl-1,2-benzisothiazolin-3-one]", "values": [{"measurement": "stability to high temperature storage", "setting": "[1]", "value": "considerably more stable to high temperature storage than IPBC"}, {"measurement": "synergy", "setting": "certain fungi", "value": "exhibits synergy in the presence of sodium omadine and certain fungi"}]}
